Data on 29 compounds can be found in ChEMBL document CHEMBL1144310, “Identification of agonists and antagonists of the human melanocortin-4 receptor from piperazinebenzylamines” (Bioorg Med Chem Lett, 2005).

Assay [1] deals with T1, Melanocortin receptor 4 (Homo sapiens, UniProt P32245). In words: Binding affinity towards human melanocortin 4 receptor expressed in HEK 293 cells using [125I]NDP-MSH. In kind it is cell-based, HEK293.
For assay [2], the system named is HEK293. In words: Agonist activity in stimulation of cAMP accumulation in HEK 293 cells. The note with it: Homo sapiens.
In a further assay the target is Melanocortin receptor 3 (Homo sapiens, UniProt P41968). Nature of the assay: Binding affinity for human melanocortin 3 receptor.
Chain of Melanocortin receptor 3 (P41968 whole entry): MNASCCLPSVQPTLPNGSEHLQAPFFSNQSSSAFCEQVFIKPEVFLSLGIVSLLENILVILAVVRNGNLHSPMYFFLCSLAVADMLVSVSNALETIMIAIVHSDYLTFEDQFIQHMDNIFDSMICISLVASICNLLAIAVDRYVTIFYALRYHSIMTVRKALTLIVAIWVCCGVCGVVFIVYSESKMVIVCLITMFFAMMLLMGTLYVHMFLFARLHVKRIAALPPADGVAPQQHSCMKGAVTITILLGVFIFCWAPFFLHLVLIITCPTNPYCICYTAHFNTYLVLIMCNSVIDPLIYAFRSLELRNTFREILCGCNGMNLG
The target in assay [3] is T1, Melanocortin receptor 4. Nature of the assay: Inhibitory concentration against Melanocortin 4 receptor.
The target in the next assay is Melanocortin receptor 5 (Homo sapiens, UniProt P33032). Nature of the assay: Binding affinity for human melanocortin 5 receptor.
Chain of Melanocortin receptor 5 (P33032 whole entry): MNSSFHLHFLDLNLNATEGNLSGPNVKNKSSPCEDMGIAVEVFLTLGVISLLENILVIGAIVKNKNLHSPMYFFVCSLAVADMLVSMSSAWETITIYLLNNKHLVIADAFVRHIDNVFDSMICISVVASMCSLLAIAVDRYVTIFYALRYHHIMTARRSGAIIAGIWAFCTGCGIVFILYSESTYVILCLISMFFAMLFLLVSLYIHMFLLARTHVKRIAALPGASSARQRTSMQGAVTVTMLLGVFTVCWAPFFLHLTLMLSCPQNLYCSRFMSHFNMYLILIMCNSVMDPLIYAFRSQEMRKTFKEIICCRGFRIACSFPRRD
Assay [4] deals with HEK293. Nature of the assay: Inhibition of alpha-MSH-stimulated cAMP production at 10 uM in HEK cell line. In kind it is functional. To be noted: Homo sapiens.

T1 sequence (P32245 whole entry): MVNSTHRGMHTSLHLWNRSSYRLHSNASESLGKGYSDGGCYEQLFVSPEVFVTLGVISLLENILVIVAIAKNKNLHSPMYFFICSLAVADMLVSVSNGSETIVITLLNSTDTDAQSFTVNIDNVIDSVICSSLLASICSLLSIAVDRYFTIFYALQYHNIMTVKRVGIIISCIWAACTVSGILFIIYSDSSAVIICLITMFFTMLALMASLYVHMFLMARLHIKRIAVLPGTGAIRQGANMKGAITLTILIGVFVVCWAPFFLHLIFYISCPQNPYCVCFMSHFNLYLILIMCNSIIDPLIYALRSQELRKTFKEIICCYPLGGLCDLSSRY

In turn, `CC(NC1CCCNC1)c1ccccc1N1CCN(C(=O)[C@@H](Cc2ccc(Cl)cc2)NC(=O)C2(N)CCc3ccccc32)CC1` (some centres undefined) registered a Ki at Melanocortin receptor 4 [1] of 47 nM.

On Melanocortin receptor 4 [1], `O=C(N[C@H](Cc1ccc(Cl)cc1)C(=O)N1CCN(c2ccccc2CNCCN2CCOCC2)CC1)[C@H]1Cc2ccccc2CN1` yielded a Ki of 120 nM. In the assay with HEK293 [2], this compound yielded an EC50 of 570 nM.

Regarding `CC(C)COCCCNC(C)c1ccccc1N1CCN(C(=O)[C@@H](Cc2ccc(Cl)cc2)NC(=O)[C@H]2Cc3ccccc3CN2)CC1` (some centres undefined), the Ki at Melanocortin receptor 4 [1] stood at 41 nM. This compound returned a concentration giving a half-maximal response (EC50) with HEK293 [2] of 560 nM.

At Melanocortin receptor 4 [1], `O=C(N[C@H](Cc1ccc(Cl)cc1)C(=O)N1CCN(c2ccccc2CNCCCn2ccnc2)CC1)[C@H]1Cc2ccccc2CN1` had an inhibition constant Ki of 370 nM. Besides, in the assay on HEK293 [2], the EC50 is 640 nM.

Consider `CC(NC1CCCNC1)c1ccccc1N1CCN(C(=O)[C@@H](Cc2ccc(Cl)cc2)NC(=O)C(N)Cc2ccccn2)CC1` (some centres undefined), for which, at Melanocortin receptor 4 [1], the affinity, expressed as Ki, was 56 nM. This compound also returned an EC50 with HEK293 [2] of 220 nM.

For the compound `CC(NC1CCCNC1)c1ccccc1N1CCN(C(=O)[C@@H](Cc2ccc(Cl)cc2)NC(=O)CC2NCCc3ccccc32)CC1` (some centres undefined), the Ki at Melanocortin receptor 4 [1] came out at 6.3 nM; on Melanocortin receptor 3 it was 1900 nM. In the assay on HEK293 [2], this compound had an EC50 of 31 nM.

On Melanocortin receptor 4 [1], `CC(NC1CCCNC1)c1ccccc1N1CCN(C(=O)[C@@H](Cc2ccc(Cl)cc2)NC(=O)C(N)c2ccccc2)CC1` (some centres undefined) came in with a Ki of 34 nM.

On Melanocortin receptor 4 [1], `CCOC(=O)CN(C)Cc1ccccc1N1CCN(C(=O)[C@@H](Cc2ccc(Cl)cc2)NC(=O)[C@H]2Cc3ccccc3CN2)CC1` registered a Ki of 140 nM. This compound had a concentration giving a half-maximal response (EC50) with HEK293 [2] of 210 nM.

With `CC(NC1CCCNC1)c1ccccc1N1CCN(C(=O)[C@@H](Cc2ccc(Cl)cc2)NC(=O)C(N)C2CCc3ccccc32)CC1` (some centres undefined), at Melanocortin receptor 4 [1], affinity was put at a Ki of 120 nM. Moreover, the EC50 in the assay on HEK293 [2] is 630 nM.

At Melanocortin receptor 4 [1], `O=C(N[C@H](Cc1ccc(Cl)cc1)C(=O)N1CCN(c2ccccc2CNc2ccncc2)CC1)[C@H]1Cc2ccccc2CN1` displayed an inhibition constant Ki of 36 nM. The EC50 in the assay with HEK293 [2] was found to be 350 nM.

In turn, `CC(NC1CCCNC1)c1ccccc1N1CCN(C(=O)[C@@H](Cc2ccc(Cl)cc2)NC(=O)c2cnc3ccccc3c2)CC1` (some centres undefined) had an IC50 against Melanocortin receptor 4 [3] of 300 nM. Besides, the Ki worked out at 4.8 nM at Melanocortin receptor 4 [1], 600 nM at Melanocortin receptor 5 and 630 nM on Melanocortin receptor 3. The inhibition at 10 µM in the assay with HEK293 [4] is 38%.

As to `CC(NC1CCCNC1)c1ccccc1N1CCN(C(=O)[C@@H](Cc2ccc(Cl)cc2)NC(=O)Cc2ccccc2)CC1` (some centres undefined), the Ki on Melanocortin receptor 4 [1] is 30 nM.

On to `N[C@H]1CCCC[C@@H]1NCc1ccccc1N1CCN(C(=O)[C@@H](Cc2ccc(Cl)cc2)NC(=O)[C@H]2Cc3ccccc3CN2)CC1`, for which, on Melanocortin receptor 4 [1], affinity was put at a Ki of 89 nM. In the assay with HEK293 [2], this compound showed an EC50 of 390 nM.

Take `O=C(N[C@H](Cc1ccc(Cl)cc1)C(=O)N1CCN(c2ccccc2CN2CCOCC2)CC1)[C@H]1Cc2ccccc2CN1`: the Ki at Melanocortin receptor 4 [1] amounted to 53 nM. Moreover, the EC50 with HEK293 [2] turned out to be 360 nM.

As to `CN1CCN(Cc2ccccc2N2CCN(C(=O)[C@@H](Cc3ccc(Cl)cc3)NC(=O)[C@H]3Cc4ccccc4CN3)CC2)CC1`, the affinity on Melanocortin receptor 4 [1] corresponds to a Ki of 240 nM. Moreover, the response in the assay on HEK293 [2] was half-maximal at 720 nM (EC50).

Compound `O=C(N[C@H](Cc1ccc(Cl)cc1)C(=O)N1CCN(c2ccccc2CN2CCCNCC2)CC1)[C@H]1Cc2ccccc2CN1` yielded a Ki at Melanocortin receptor 4 [1] of 78 nM. The compound further returned an EC50 with HEK293 [2] of 210 nM.

In the assay with HEK293 [2], `CN(C)CCC(=O)N[C@H](Cc1ccc(Cl)cc1)C(=O)N1CCC(Cn2cncn2)(C2CCCCC2)CC1` returned an EC50 of 40 nM.

In the case of `O=C(N[C@H](Cc1ccc(Cl)cc1)C(=O)N1CCN(c2ccccc2CNCCCN2CCCC2=O)CC1)[C@H]1Cc2ccccc2CN1`, at Melanocortin receptor 4 [1], affinity was put at a Ki of 270 nM. In the assay with HEK293 [2], this compound returned an EC50 of 360 nM.

As for `CC(NC1CCCNC1)c1ccccc1N1CCN(C(=O)[C@@H](Cc2ccc(Cl)cc2)NC(=O)[C@H]2Cc3ccccc3CN2)CC1` (some centres undefined), the EC50 in the assay with HEK293 [2] was found to be 4.7 nM.

Regarding `CC(NC1CCCNC1)c1ccccc1N1CCN(C(=O)[C@@H](Cc2ccc(Cl)cc2)NC(=O)CCc2ccccc2)CC1` (some centres undefined), on Melanocortin receptor 4 [1], the affinity, expressed as Ki, was 33 nM. This counts as double-digit nanomolar.

For `CC(NC1CCCNC1)c1ccccc1N1CCN(C(=O)[C@@H](Cc2ccc(Cl)cc2)NC(=O)C(N)Cc2cccnc2)CC1` (some centres undefined), the Ki at Melanocortin receptor 4 [1] came out at 49 nM.

`CC(NCCN1CCOCC1)c1ccccc1N1CCN(C(=O)[C@@H](Cc2ccc(Cl)cc2)NC(=O)[C@H]2Cc3ccccc3CN2)CC1` (some centres undefined) registered a Ki on Melanocortin receptor 4 [1] of 87 nM. In the assay on HEK293 [2], this compound yielded a concentration giving a half-maximal response (EC50) of 230 nM.

For the compound `CC(NC1CCCNC1)c1ccccc1N1CCN(C(=O)[C@@H](Cc2ccc(Cl)cc2)NC(=O)C2(N)Cc3ccccc3C2)CC1` (some centres undefined), on Melanocortin receptor 4 [1], affinity was put at a Ki of 24 nM. For the same compound, the EC50 with HEK293 [2] was found to be 440 nM.

Compound `O=C(N[C@H](Cc1ccc(Cl)cc1)C(=O)N1CCN(c2ccccc2CNCCc2cccs2)CC1)[C@H]1Cc2ccccc2CN1` yielded an EC50 with HEK293 [2] of 360 nM.

Compound `CC(C)COCCCNCc1ccccc1N1CCN(C(=O)[C@@H](Cc2ccc(Cl)cc2)NC(=O)[C@H]2Cc3ccccc3CN2)CC1` yielded a Ki at Melanocortin receptor 4 [1] of 110 nM. In the assay with HEK293 [2], this compound returned an EC50 of 520 nM.

Take `CN(C)CCN(Cc1ccccc1)Cc1ccccc1N1CCN(C(=O)[C@@H](Cc2ccc(Cl)cc2)NC(=O)[C@H]2Cc3ccccc3CN2)CC1`: the inhibitory constant (Ki) on Melanocortin receptor 4 [1] stood at 22 nM. In the assay on HEK293 [2], it took 550 nM to reach a half-maximal effect (EC50).

On Melanocortin receptor 4 [1], `CC(NC1CCCNC1)c1ccccc1N1CCN(C(=O)[C@@H](Cc2ccc(Cl)cc2)NC(=O)C2(N)CCc3ccccc3C2)CC1` (some centres undefined) registered a Ki of 10 nM. This compound gave an EC50 with HEK293 [2] of 330 nM.

On to `CC(NC1CCCNC1)c1ccccc1N1CCN(C(=O)[C@@H](Cc2ccc(Cl)cc2)NC(=O)C(N)Cc2ccccc2)CC1` (some centres undefined), for which the affinity at Melanocortin receptor 4 [1], expressed as Ki, was 52 nM. In the assay with HEK293 [2], this compound yielded an EC50 of 400 nM.

On Melanocortin receptor 4 [1], `O=C(N[C@H](Cc1ccc(Cl)cc1)C(=O)N1CCN(c2ccccc2CNCCCN2CCCCCC2)CC1)[C@H]1Cc2ccccc2CN1` displayed a Ki of 160 nM. The same compound had an EC50 in the assay on HEK293 [2] of 570 nM.
